# Legend:
# MV-4-11 cells = experiment: MV-4-11 (leukemia) cell proliferation assay (ATPlite); type: cell-based; conditions: Homo sapiens, MV4-11, read-out: Inhibition of Cell Proliferation IC50, MV-4-11
# Description: Compounds are assessed in a variety of cell based assays. For example BaF3 cells engineered with any of BCR-FMS, BCR-KIT, BCR-FLT3, BCR-NTRK1, BCR-NTRK2, and BCR-NTRK3, are used in cell proliferation assays to assess inhibitory activity of Fms, Kit, Flt-3, TrkA, TrkB, and TrkC, respectively. An MV-4-11 (leukemia) cell proliferation assay is used to assess inhibitory activity in Flt-3, and SKNSH (human neuroblastoma) cell proliferation assay is used to assess efficacy of Fms/Trk inhibitors. Additional cells may be assayed similarly to assess the efficacy of Fms/Trk inhibitors, such as MiaPaCa (human pancreatic cancer) and Capan-1 (human pancreatic carcinoma) cells. Reagent and assay conditions are as follows: • BaF3 cells: • Maintained in RPMI containing 10% FBS, 1% PenStrep, 1% NEAA, and 1% L-Glutamine, supplemented with 1 mg/mL G418 and 5% WEHI-CM (or recombinant murine IL-3). • Confluent cells are split 1:50 to 1:100 every 3-4 days. • MV-4-11 cells: • Maintained in Iscove's Modified Dulbecco's Medium containing 10% FBS. • Confluent cells are split 1:4 every 3-4 days. • SKNSH cells: RPMI containing 10% FBS. On day 1, cells are counted, then centrifuged in a conical tube for 5 minutes at 1000 rpm. The supernatant is removed and cells are re-suspended as follows: • BaF3: resuspend in growth media +1 mg/mL G418 (without WEHFIL-3) to 2×10^5 cells/mL. • MV-4-11: resuspend in growth media to 5×10^5 cells/mL. • SKNSH: resuspend in growth media to 2×10^4 cells/mL. The cells are plated (50 μL, 150 μL for SKNSH cells) in each well of a 96-well dish (Corning 3610) and incubated at 37° C. in 5% CO2 overnight, cells plated to a final concentration of cells as follows: • BaF3: 10,000 cells per well. • MV-4-11: 25,000 cells per well. • SKNSH: 3,000 cells per well. On day 2, compound at a maximum concentration of 5 mM is serially diluted 1:3 for a total of 8 point titration with DMSO as a control. A 1 μL aliquot of each dilution point is added to 249 μL growth media and 50 μL is added to a well containing cells, providing 10 μM compound for the maximum concentration point. The cells are incubated for 3 days at 37° C. in 5% CO2. For SKNSH cells, a 0.75 μL aliquot of appropriate dilution in DMSO is added to 150 μL of cells. On day 5, ATPlite 1 step Luminescence Assay System (Perkin Elmer #6016739) is brought to room temperature along with the cell cultures. ATPlite is added to each well as follows: • BaF3: 25 μL per well. • MV-4-11: 40 μL per well. • SKNSH: 20 μL per well. The cells are incubated at room temperature for 10 minutes, then luminescence is read on Safire reader. The measured luminescence correlates directly with cell number, such that the reading as a function of compound concentration is used to determine the IC50 value.
# It is understood that the results of these assays may vary as assay conditions are varied. Inhibition levels determined under the conditions described herein represent a relative activity for the compounds tested under the specific conditions employed. The cell based assays are likely to show variability due to the complexity of the system and the sensitivity thereof to any changes in the assay conditions. […] Results for compounds that are tested and show substantially no inhibition below the highest tested concentration are represented as “-” in the tables below. In some instances, the compounds were not tested in all of the assays, or assay results were not valid, as indicated by NA in the tables below.
# [1] = Relative solubility by turbidity in aqueous buffers (pH 1.5, 4.5, 6.8, 7.4); type: physicochemical; conditions: for turbidity threshold (L, M, H) 1.4: pH 1.5 (SGF); for turbidity threshold (L, M, H) 4.5: pH 4.5 (SIF); for turbidity threshold (L, M, H) 6.8: pH 6.8 (SIF); for turbidity threshold (L, M, H) 7.4: pH 7.4 (HEPES)
# Method in brief: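 Twofold DMSO dilutions of a 25 mM stock were spiked into SGF (0.5M NaCl, pH 1.5), SIF (0.05M NaH2PO4, pH 4.5 and 6.8) or HEPES buffer (10 mM HEPES, 150 mM NaCl, pH 7.4). Absorbance was read at 490, 535 and 650 nm. The endpoint is the concentration crossing O.D. 0.01, averaged across wavelengths.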
Structure (SMILES),IC50 (MV-4-11 cells) [nM],"turbidity threshold (L, M, H) 1.4 [1]","turbidity threshold (L, M, H) 4.5 [1]","turbidity threshold (L, M, H) 6.8 [1]","turbidity threshold (L, M, H) 7.4 [1]"
FC1(F)CCC(Nc2ncc(Cc3c[nH]c4ncc(Cl)cc34)cn2)CC1 [Compound P-3004],< 10000,H (high solubility if the threshold concentration is >250 μm),L (low solubility if the threshold concentration is <31.3 μM),L (low solubility if the threshold concentration is <31.3 μM),L (low solubility if the threshold concentration is <31.3 μM)
"Cc1cnc2[nH]cc(Cc3cnc(Nc4ccc(C(F)(F)F)nc4)nc3)c2c1 [Compound P-3018, [5-(5-Methyl-1H-pyrrolo[2,3-b]pyridin-3-ylmethyl)-pyrimidin-2-yl]-(6-trifluoromethyl-pyridin-3-yl)-amine]",< 10,H (high solubility if the threshold concentration is >250 μm),M (moderate solubility if the threshold concentration is 31.3 μM to 250 μM),M (moderate solubility if the threshold concentration is 31.3 μM to 250 μM),M (moderate solubility if the threshold concentration is 31.3 μM to 250 μM)
"COc1ccc(Nc2ccc(Cc3c[nH]c4ncc(C)cc34)c(F)n2)cn1 [Compound P-3019, [6-fluoro-5-(5-methyl-1H-pyrrolo[2,3-b]pyridin-3-ylmethyl)-pyridin-2-yl]-(6-methoxy-pyridin-3-yl)-amine]",< 1000,H (high solubility if the threshold concentration is >250 μm),L (low solubility if the threshold concentration is <31.3 μM),L (low solubility if the threshold concentration is <31.3 μM),L (low solubility if the threshold concentration is <31.3 μM)
"COc1ccc(Nc2ncc(Cc3c[nH]c4ncc(C)cc34)cn2)cn1 [Compound P-3020, (6-Methoxy-pyridin-3-yl)-[5-(5-methyl-1H-pyrrolo[2,3-b]pyridin-3-ylmethyl)-pyrimidin-2-yl]-amine]",< 100,,,,
"COc1cc(Nc2ncc(Cc3c[nH]c4ncc(C)cc34)cn2)ccc1F [Compound P-3022, (4-Fluoro-3-methoxy-phenyl)-[5-(5-methyl-1H-pyrrolo[2,3-b]pyridin-3-ylmethyl)-pyrimidin-2-yl]-amine]",< 1000,,,,
"COc1ccc(Nc2ncc(Cc3c[nH]c4ncc(C)cc34)cn2)cc1F [Compound P-3023, (3-Fluoro-4-methoxy-phenyl)-[5-(5-methyl-1H-pyrrolo[2,3-b]pyridin-3-ylmethyl)-pyrimidin-2-yl]-amine]",< 100,,,,
"CCOc1ccc(Nc2ncc(Cc3c[nH]c4ncc(C)cc34)cn2)cn1 [Compound P-3027, (6-Ethoxy-pyridin-3-yl)-[5-(5-methyl-1H-pyrrolo[2,3-b]pyridin-3-ylmethyl)-pyrimidin-2-yl]-amine]",< 10,,,,
"CCn1ccc(Nc2ncc(Cc3c[nH]c4ncc(C)cc34)cn2)n1 [Compound P-3035, (1-Ethyl-1H-pyrazol-3-yl)-[5-(5-methyl-1H-pyrrolo[2,3-b]pyridin-3-ylmethyl)-pyrimidin-2-yl]-amine]",< 1000,,,,
"CCn1cc(Nc2ncc(Cc3c[nH]c4ncc(C)cc34)cn2)cn1 [Compound P-3036, (1-Ethyl-1H-pyrazol-4-yl)-[5-(5-methyl-1H-pyrrolo[2,3-b]pyridin-3-ylmethyl)-pyrimidin-2-yl]-amine]",< 100,,,,
"Cc1cnc2[nH]cc(Cc3cnc(Nc4cc(OC(C)C)n[nH]4)nc3)c2c1 [Compound P-3038, (5-Isopropoxy-2H-pyrazol-3-yl)-[5-(5-methyl-1H-pyrrolo[2,3-b]pyridin-3-ylmethyl)-pyrimidin-2-yl]-amine]",> 1000,,,,
"CCOc1ccc(Nc2ccc(Cc3c[nH]c4ncc(C)cc34)c(F)n2)cn1 [Compound P-3039, (6-ethoxy-pyridin-3-yl)-[6-fluoro-5-(5-methyl-1H-pyrrolo[2,3-b]pyridin-3-ylmethyl)-pyridin-2-yl]-amine]",< 1000,H (high solubility if the threshold concentration is >250 μm),M (moderate solubility if the threshold concentration is 31.3 μM to 250 μM),M (moderate solubility if the threshold concentration is 31.3 μM to 250 μM),M (moderate solubility if the threshold concentration is 31.3 μM to 250 μM)
"CCn1cc(Nc2ccc(C(=O)c3c[nH]c4ncnc(C5CC5)c34)c(F)n2)cn1 [Compound P-4037, (4-Cyclopropyl-7H-pyrrolo[2,3-d]pyrimidin-5-yl)-[6-(1-ethyl-1H-pyrazol-4-ylamino)-2-fluoro-pyridin-3-yl]-methanone]",,H (high solubility if the threshold concentration is >250 μm),M (moderate solubility if the threshold concentration is 31.3 μM to 250 μM),M (moderate solubility if the threshold concentration is 31.3 μM to 250 μM),M (moderate solubility if the threshold concentration is 31.3 μM to 250 μM)
"Fc1nc(NC2CCC(F)(F)CC2)ccc1Cc1c[nH]c2ncnc(NCC(F)(F)F)c12 [Compound P-4128, 5-[[6-[(4,4-difluorocyclohexyl)amino]-2-fluoro-3-pyridyl]methyl]-N-(2,2,2-trifluoroethyl)-7H-pyrrolo[2,3-d]pyrimidin-4-amine]",,H (high solubility if the threshold concentration is >250 μm),M (moderate solubility if the threshold concentration is 31.3 μM to 250 μM),M (moderate solubility if the threshold concentration is 31.3 μM to 250 μM),M (moderate solubility if the threshold concentration is 31.3 μM to 250 μM)
"Fc1nc(NC2CCC(F)(F)CC2)ccc1Cc1c[nH]c2ncnc(NC3CC3)c12 [Compound P-4129, N-cyclopropyl-5-[[6-[(4,4-difluorocyclohexyl)amino]-2-fluoro-3-pyridyl]methyl]-7H-pyrrolo[2,3-d]pyrimidin-4-amine]",,H (high solubility if the threshold concentration is >250 μm),M (moderate solubility if the threshold concentration is 31.3 μM to 250 μM),M (moderate solubility if the threshold concentration is 31.3 μM to 250 μM),M (moderate solubility if the threshold concentration is 31.3 μM to 250 μM)
"Fc1nc(Nc2ccc(C3CC3)nc2)ccc1Cc1c[nH]c2ncnc(NCC(F)(F)F)c12 [Compound P-4130, 5-[[6-[(6-cyclopropyl-3-pyridyl)amino]-2-fluoro-3-pyridyl]methyl]-N-(2,2,2-trifluoroethyl)-7H-pyrrolo[2,3-d]pyrimidin-4-amine]",,H (high solubility if the threshold concentration is >250 μm),M (moderate solubility if the threshold concentration is 31.3 μM to 250 μM),M (moderate solubility if the threshold concentration is 31.3 μM to 250 μM),M (moderate solubility if the threshold concentration is 31.3 μM to 250 μM)

# From patent US8901118B2, “Compounds and methods for kinase modulation, and indications therefor” (Plexxikon Inc., priority 2010, dated 2014)
